The values below come from EPA's ToxRefDB 2.

What is called LOAEL is the lowest dose or exposure tested at which an adverse effect was seen. As a reminder, the NOAEL is the highest dose or exposure tested at which no adverse effect was seen.

Structures are written as SMILES.

Series [1] concerns rat. To be noted: Subchronic oral toxicity in rodents, sprague dawley, Injection, Intraperitoneal, dose end: 45 day, group: systemic.
Series [2] has as its system rat. To be noted: Carcinogenicity, sprague dawley, Injection, Intraperitoneal, dose end: 52 week, group: systemic.
The test system of series [3] is mouse. Conditions: Carcinogenicity, b6c3f1, Injection, Intraperitoneal, dose end: 52 week, group: systemic.
The subject of series [4] is rat. To be noted: Subchronic oral toxicity in rodents, sprague dawley, Feed, dose end: 13 week, group: systemic, systemic / clinical chemistry / cholesterol / cholesterol + systemic / organ weight / liver / relative to body weight + systemic / pathology….
Series [5] concerns rat. To be noted: Combined chronic toxicity/carcinogenicity; sprague dawley; Oral; Feed; dose end: 24 month; group: systemic; systemic / organ weight / liver / relative to body weight + systemic / pathology microscopic / liver / hypertrophy + systemic / pathology ….
The subject of another series is dog. Conditions: Chronic toxicity; beagle; Oral; Feed; dose end: 52 week; group: systemic; systemic / clinical chemistry / alkaline phosphatase (alp/alk) / alkaline phosphatase (alp/alk) + systemic / organ weight / liver / absolute….
The test system of series [6] is rat. To be noted: Multigenerational reproductive toxicity study, sprague dawley, Oral, Feed, dose end: 2 generation.
Series [7] deals with mouse. Conditions: Carcinogenicity, b6c3f1, Oral, Feed, dose end: 24 month, group: systemic.
Setting [8] is: systemic / in life observation / clinical signs / distended abdomens + systemic / in life observation / mortality / mortality + systemic / ….
Where [9] appears, read: systemic / in life observation / mortality / mortality + systemic / pathology microscopic / peritoneum / sarcoma.
Where [10] appears, read: systemic / in life observation / mortality / mortality + systemic / pathology microscopic / peritoneum / sarcoma + systemic / in life ….
The mark [11] stands for this setting: systemic / in life observation / mortality / mortality.
The mark [12] stands for this setting: systemic / pathology microscopic / peritoneum / sarcoma + systemic / in life observation / body weight / body weight + systemic / in life ….
Where [13] appears, read: group: offspring, systemic / in life observation / body weight / offspring (pup) weight.
Where [14] appears, read: group: parental, systemic / in life observation / body weight / body weight + systemic / in life observation / food consumption / food consumption + systemic….
The mark [15] stands for this setting: systemic / pathology gross / liver / enlarged + systemic / pathology gross / liver / mass + systemic / pathology gross / liver / nodule(s….

For `CC(COc1ccccc1)N(CCCl)Cc1ccccc1.Cl` (stereo unspecified) [Phenoxybenzamine hydrochloride], the LEL is 15 mg/kg/day with rat [1] (systemic / in life observation / clinical signs / distended abdomens), 5 mg/kg/day in the series with rat [2] (setting [9]) and 12.5 mg/kg/day in the series on mouse [3] (setting [11]). The LOAEL with rat [1] (setting [8]) was > 30 mg/kg/day; in the series with rat [2] (setting [10]), > 10 mg/kg/day; in the series on mouse [3] (setting [12]) it was > 25 mg/kg/day. Besides, the NEL is 7.5 mg/kg/day in the series on rat [1] (setting [8]), < 5 mg/kg/day in the series on rat [2] (setting [9]) and < 12.5 mg/kg/day with mouse [3] (setting [11]). Further, the values for the no-observed-adverse-effect level (NOAEL) with rat [1] (setting [8]), with rat [2] (setting [10]) and in the series with mouse [3] (setting [12]) were ≥ 30 mg/kg/day, ≥ 10 mg/kg/day and ≥ 25 mg/kg/day, respectively.

As for `C#CC(C)(C)NC(=O)c1cc(Cl)cc(Cl)c1` [Propyzamide], the LEL with rat [4] stood at 60 mg/kg/day; in the series on rat [5], 48.8 mg/kg/day; with dog, 33.1 mg/kg/day; in the series on rat [6] (setting [13]), 114 mg/kg/day; in the series with rat [6] (setting [14]), 114 mg/kg/day; in the series on mouse [7] (setting [15]), 75 mg/kg/day. The LOAEL in the series with rat [4] is 60 mg/kg/day; in the series with rat [5] it was 48.8 mg/kg/day; with dog it was 33.1 mg/kg/day; in the series on rat [6] (setting [13]) it was 114 mg/kg/day; in the series with rat [6] (setting [14]) it was 114 mg/kg/day; in the series on mouse [7] (systemic / pathology gross / liver / enlarged + systemic / pathology gross / liver / mass + systemic / pathology gross / liver / nodule(s)) it was 75 mg/kg/day. Also, the NEL is 12.3 mg/kg/day in the series on rat [4]; 10.1 mg/kg/day in the series with rat [5]; 11.9 mg/kg/day in the series with dog; 15.4 mg/kg/day with rat [6] (setting [13]); 15.4 mg/kg/day in the series with rat [6] (setting [14]); 15 mg/kg/day in the series with mouse [7] (setting [15]). Also, the NOAEL in the series with rat [4] was found to be 12.3 mg/kg/day; with rat [5], 10.1 mg/kg/day; in the series on dog, 11.9 mg/kg/day; with rat [6] (setting [13]), 15.4 mg/kg/day; in the series on rat [6] (setting [14]), 15.4 mg/kg/day; in the series with mouse [7] (setting [15]) it was 15 mg/kg/day.
